The conditions of assay [1]: literature, J. Med. Chem., 33(5), 1418-23 (1990); cited from earlier work.
The conditions of assay [2]: literature, J. Med. Chem., 24(4), 465-8 (1981); cited from earlier work.
Assay [3] has as its target T1, human neurokinin-1- receptor (NK1R) (Homo sapiens, UniProt P25103).
T1 construct: expressed in transfected cells
The experiment in a line: 125I-substance P binding assay, human NK1R expressed in COS or CHO cells (Substance P antagonism). The conditions noted are these: displacement of 125I-substance P, 4° C. or room temperature, 1 hour. As to the method:
SUBSTANCE P ANTAGONISM ASSAY
A. Receptor Expression in Monkey Kidney Cell Line (COS)
To express the cloned human neurokinin-1- receptor (NK1R) transiently in COS, the cDNA for the human NK1R was cloned into the expression vector pCDM9 which was derived from pCDM8 (INVITROGEN) by inserting the ampicillin resistance gene (nucleotide 1973 to 2964 from BLUESCRIPT SK+ (trademark, STRATAGENE, La Jolla, Calif., USA)) into the Sac II site. Transfection of 20 μg of the plasmid DNA into 10 million COS cells was achieved by electropotation in 800 μl of transfection buffer (135 mM NaCl, 1.2 mM CaCl2, 1.2 mM MgCl2, 2.4 mM K2 HPO4, 0.6 mM KH2 PO4, 10 mM glucose, 10 mM N-2-hydroxyethyl-piperazine-N'-2-ethane sulphonic acid (HEPES) pH 7.4) at 260 V and 950 μF using the IBI GENEZAPPER (trademark IBI, New Haven, Conn., USA). The cells were incubated in 10% fetal calf serum, 2 mM glutamine, 100U/ml penicillin-streptomycin, and 90% DMEM media (GIBCO, Grand Island, N.Y., USA) in 5% CO2 at 37° C. for three days before the binding assay.
B. Stable Expression in Chinese Hamster Ovarian Cell Line (CHO)
To establish a stable cell line expressing cloned human NK1R, the cDNA was subcloned into the vector pRcCMV (INVITROGEN). Transfection of 20 μg of the plasmid DNA into CHO cells was achieved by electroporation in 800 μl of transfection buffer supplemented with 0.625 mg/ml Herring sperm DNA at 300 V and 950 μF using the IBI GENEZAPPER (IBI). The transfected cells were incubated in CHO media [10% fetal calf serum, 100 U/ml penicillin-streptomycin, 2 mM glutamine, 1/500 hypoxanthinethymidine (ATCC), 90% IMDM media (JRH BIOSCIENCES, Lenexa, Kans., USA), 0.7 mg/ml G418 (GIBCO)] in 5% CO2 at 37° C. until colonies were visible. Each colony was separated and propagated. The cell clone with the highest number of human NK1R was selected.
C. Assay Protocol using COS or CHO
The binding assay of human NK1R expressed in either COS or CHO cells is based on the use of ^125 I-substance P (^125 I-SP, from DU PONT, Boston, Mass.) as a radioactively labeled ligand which competes with unlabeled substance P or any other ligand for binding to the human NK1R. Monolayer cell cultures of COS or CHO were dissociated by the non-enzymatic solution (SPECIALTY MEDIA, Lavellette, N.J.) and resuspended in appropriate volume of the binding buffer (50 mM Tris pH 7.5, 5 mM MnCl2, 150 mM NaCl, 0.04 mg/ml bacitracin, 0.004 mg/ml leupeptin, 0.2 mg/ml BSA, 0.01 mM phosphoramidon) such that 200 μl of the cell suspension would give rise to about 10,000 cpm of specific ^125 I-SP binding (approximately 50,000 to 200,000 cells). In the binding assay, 200 μl of cells were added to a tube containing 20 μl of 1.5 to 2.5 nM of ^125 I-SP and 20 μl of unlabeled substance P or any other test compound. The tubes were incubated at 4° C. or at room temperature for 1 hour with gentle shaking. The bound radioactivity was separated from unbound radioactivity by GF/C filter (BRANDEL, Gaithersburg, MD) which was pre-wetted with 0.1% polyethylenimine. The filter was washed with 3 ml of wash buffer (50 mM Tris pH 7.5, 5 mM MnCl2, 150 mM NaCl) three times and its radioactivity was determined by gamma counter.
On the technique in general: Loss of bound radioactivity is the signal in a displacement assay; it reports binding, not function.

Where only a bound is given, the exact number is not on record here.

T1 sequence (P25103 whole entry): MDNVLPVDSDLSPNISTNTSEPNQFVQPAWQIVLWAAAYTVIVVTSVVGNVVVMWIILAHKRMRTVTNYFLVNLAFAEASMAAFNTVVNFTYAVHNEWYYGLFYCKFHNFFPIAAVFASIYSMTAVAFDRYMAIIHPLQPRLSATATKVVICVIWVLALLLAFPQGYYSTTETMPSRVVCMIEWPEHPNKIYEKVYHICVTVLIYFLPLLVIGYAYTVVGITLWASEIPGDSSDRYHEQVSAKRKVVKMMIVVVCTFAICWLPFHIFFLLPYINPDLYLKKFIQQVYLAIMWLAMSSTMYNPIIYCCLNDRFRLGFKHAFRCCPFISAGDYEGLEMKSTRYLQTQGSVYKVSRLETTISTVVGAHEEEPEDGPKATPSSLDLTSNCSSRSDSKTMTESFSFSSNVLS

For `O=C1NC(=O)C(Cc2ccc3ccccc3c2)S1` (stereo not drawn), the antihyperglycaemic activity result in assay [1] is listed as “antihyperglycaemic activity”. In the case of `CN1C(=O)NC(Cc2cccc(Br)c2)C1=O` (stereo not drawn), in assay [2], the anticonvulsant activity result is listed as “weak anticonvulsant activity”. In assay [3], “1-Phenylcarboxamide-3-(3,5-bistrifluoromethylbenzyl)-5-(indol-3-ylmethylene)imidazolidine-2,4-dione [Example 13]” came in with an IC50 of 410 nM. On the same count and under the same terms, with `O=C1OC(Cc2c[nH]c3ccccc23)C(=O)N1Cc1cc(C(F)(F)F)cc(C(F)(F)F)c1` (stereo not drawn) [Example 1] the figure was 21 nM; with `O=C1NC(Cc2c[nH]c3ccccc23)C(=O)N1Cc1cc(C(F)(F)F)cc(C(F)(F)F)c1` (stereo not drawn) [Example 2], 400 nM; with `O=C1CC(Cc2c[nH]c3ccccc23)C(=O)N1Cc1cc(C(F)(F)F)cc(C(F)(F)F)c1` (stereo not drawn) [Example 3], 250 nM. In assay [3], `Cn1cc(CC2(C)OC(=O)N(Cc3cc(C(F)(F)F)cc(C(F)(F)F)c3)C2=O)c2ccccc21` (stereo not drawn) [Example 4a, 3-(3,5-Bistrifluoromethylbenzyl)-5-methyl-5-(1-methylindol-3-ylmethylene)oxazolidin-2,4-dione] came in with an IC50 of 14 nM. Same read-out and setting: with `CC1(Cc2c[nH]c3ccccc23)OC(=O)N(Cc2cc(C(F)(F)F)cc(C(F)(F)F)c2)C1=O` (stereo not drawn) [Example 4b] the figure was 140 nM. The same measure, in the same setting: with `Cn1cc(CC2OC(=O)N(Cc3cc(C(F)(F)F)cc(C(F)(F)F)c3)C2=O)c2ccccc21` (stereo not drawn) [Example 4c] the figure was 300 nM; with `COc1ccc2[nH]cc(CC3OC(=O)N(Cc4cc(C(F)(F)F)cc(C(F)(F)F)c4)C3=O)c2c1` (stereo not drawn) [Example 5], 300 nM.

For the molecule `C=CCC1(Cc2c[nH]c3ccccc23)OC(=O)N(Cc2cc(C(F)(F)F)cc(C(F)(F)F)c2)C1=O` (stereo not drawn) [Example 6], the IC50 in assay [3] worked out at 50 nM. Same read-out and setting: as for `O=C1OC(Cc2c[nH]c3ccccc23)C(=O)N1Cc1cc(Cl)cc(Cl)c1` (stereo not drawn) [Example 7], the figure is 200 nM; as for `O=C1O[C@@H](Cc2c[nH]c3ccccc23)C(=O)N1Cc1cc(C(F)(F)F)cc(C(F)(F)F)c1` [Example 8], 17 nM; as for `CC1(Cc2ccc3ccccc3c2)OC(=O)N(Cc2cc(C(F)(F)F)cc(C(F)(F)F)c2)C1=O` (stereo not drawn) [Example 9, 5-Methyl-5-(2-naphthylmethyl)-3-(3,5-bistrifluoromethylbenzyl)oxazolidin-2,4-dione], > 1000 nM. `CC1(Cc2ccc(Cl)c(Cl)c2)OC(=O)N(Cc2cc(C(F)(F)F)cc(C(F)(F)F)c2)C1=O` (stereo not drawn) [Example 10, 5-Methyl-5(3,4-dichlorobenzyl)-3-(3,5-bistrifluoromethylbenzyl)oxazolidin-2,4-dione] returned an IC50 in assay [3] of 100 nM.

In turn, `O=C1C(Cc2c[nH]c3ccccc23)N(Cc2ccccc2)C(=O)N1Cc1cc(C(F)(F)F)cc(C(F)(F)F)c1` (stereo not drawn) [Example 11] registered an IC50 in assay [3] of 630 nM. The same measure, in the same setting: with `CN1C(=O)N(Cc2cc(C(F)(F)F)cc(C(F)(F)F)c2)C(=O)C1Cc1c[nH]c2ccccc12` (stereo not drawn) [Example 12] the figure was 160 nM; with `CNC(=O)N1C(=O)N(Cc2cc(C(F)(F)F)cc(C(F)(F)F)c2)C(=O)C1Cc1c[nH]c2ccccc12` (stereo not drawn) [Example 14], 85 nM.

As usually defined, the IC50 is the midpoint of a concentration-inhibition curve. Lower therefore signals inhibition by little substance.

(Values after patent US5334606A, “Oxazolidindione substituted indole derivatives” (Merck Sharpe & Dohme Ltd., priority 1991, dated 1994).)
